Laboratory results as given in patent US6395762B1, “Phenyl amino squarate and thiadiazole dioxide beta-3 adrenergic receptor agonists” (American Home Products Corporation, priority 2000, dated 2002).

Experiments:
human β3-AR = target: T1, human β3-AR (Homo sapiens, UniProt P13945); test: cAMP accumulation (SPA) in CHO cells transfected with human β3-AR; format: cell-based; conditions: CHO cells transfected with human β3-AR; for EC50: cAMP by SPA, 30 min at 37° C., 10^−9 M to 10^−5 M, read-out: EC50(β3); for IA(β3): maximal response of compound relative to maximal response of isoproterenol at 10^−5 M
T1 construct: Full-length β3-AR clones (402 amino acids) containing the last 6 amino acids of hβ3-AR; expressed in transfected cells; host or cells: CHO (Chinese hamster ovary) cells
Description: The ability of the compounds of this invention to treat or inhibit disorders related to insulin resistance or hyperglycemia was confirmed with representative compounds of this invention in the following standard pharmacological test procedures, which measured the binding selectivity of the β1-, β2-, and β3-AR. Binding to the receptors was measured in Chinese Hamster ovary (CHO) cells that were transfected with β1-, β2-, and β3-AR's. The following briefly summarizes the procedures used and results obtained.
Cloning of Human β3-AR Genomic DNA: cDNA was constructed by ligating four polymerase chain reaction (PCR) products using the following primers: an ATG-Narl fragment, sense primer 5′-[…]3′ and anti-sense primer 5′[…]3′; a Narl-Accl fragment, 5′[…]3′ as sense and 5′[…]3′ as anti-sense primer; an Accli—Styl fragment, sense primer 5′[…]3′ and anti-sense primer 5′[…]3′ and a Styl-TAG fragment, with sense primer 5′ […]3′ and anti-sense primer 5′ […]3′ . The corresponding primer sequences are described in Mantzoros, C. S., et.al., Diabetes, 1996, 45, 909-914. The four fragments are ligated into a pUC 18 plasmid (Gibco-BRL) and sequenced. Full-length β3-AR clones (402 amino acids) containing the last 6 amino acids of hβ3-AR are prepared with the β3-βARpcDNA3 from ATTC.
Binding Procedure: Clones expressing receptor levels of 70 to 110 fmoles/mg protein were used in the test procedures. CHO cells were grown in 24-well tissue culture plates in Dulbecco's Modified Eagle Media with 10% fetal bovine serum, MEM non-essential amino acids, Penicillin—Streptomycin and Geneticin. On the day of test procedure, growth medium was replaced with preincubation media (Dulbecco's Modified Eagle Media) and incubated for 30 minutes at 37° C. Pre-incubation medium was replaced with 0.2 ml treatment medium containing DMEM media containing 250 μM IBMX (isobutyl-1-methylxantine) plus 1 mM ascorbic acid with test compound dissolved in DMSO. Test compounds were assayed over a concentration range of 10^−9 M to 10^−5 M for β3-AR transfected cells and 10^−8 to 10^−4 M for β1-AR and β2-AR transfected cells. Isoproterenol (10^−5 M) was used as an internal standard for comparison of activity. Cells were incubated at 37° C. on a rocker for 30 min with the β3-AR transfected cells and 15 min with β1-AR and β2-AR transfected cells. Incubation was stopped by the addition of 0.2N HCl and the acid was neutralized with 2.5N NaOH. The plates, containing the cells and neutralized media, were stored at −20° C. until ready to test for cAMP using the SPA test kit (Amersham).
Data Analysis and Results: Data collected from the SPA test procedure were analyzed as percent of the maximal isoproterenol response at 10^−5 M. Activity curves were plotted using the SAS statistical and graphics software.

T1 sequence (P13945 whole entry): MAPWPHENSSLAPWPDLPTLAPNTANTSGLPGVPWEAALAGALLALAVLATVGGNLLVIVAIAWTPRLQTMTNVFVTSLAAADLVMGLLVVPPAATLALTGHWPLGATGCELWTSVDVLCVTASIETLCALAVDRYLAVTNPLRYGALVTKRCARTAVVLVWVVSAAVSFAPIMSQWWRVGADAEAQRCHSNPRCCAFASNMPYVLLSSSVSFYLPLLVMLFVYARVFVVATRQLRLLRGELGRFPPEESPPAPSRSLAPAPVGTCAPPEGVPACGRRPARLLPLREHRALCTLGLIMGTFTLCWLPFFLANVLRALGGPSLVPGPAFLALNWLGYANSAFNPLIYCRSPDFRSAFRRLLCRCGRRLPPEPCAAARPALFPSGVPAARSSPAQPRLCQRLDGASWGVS

| EC50 (human β3-AR) [nM] | IA(β3) (human β3-AR) | melting point | SMILES |
| --- | --- | --- | --- |
| 11 | 1.45 | 203.5 to 206 °C | CCCCCCCCNC1=NS(=O)(=O)N=C1Nc1ccc(CC(C)NC[C@H](O)COc2ccc(O)cc2)cc1 (stereo partly drawn) [Compound 12, 4-((2S)-2-Hydroxy-3-{1-methyl-2-[4-(4-octylamino-1,1-dioxo-1H-1-.lambda(6).-[1,2,5]thiadiazol-3-ylamino)-phenyl]-1-ethylamino}-propoxy)-phenol] |
| 86 | 0.97 | 130 to 132 °C | CCCCCCCCCCNc1c(Nc2ccc(CC(C)NC[C@H](O)COc3ccc(O)cc3)cc2)c(=O)c1=O (stereo partly shown) [Compound 15] |
| 233 | 0.47 | 125 to 131 °C | CCCCCCCCNc1c(Nc2ccc(CC(C)NC[C@H](O)COc3cccc4[nH]c5ccccc5c34)cc2)c(=O)c1=O (stereo partly drawn) [Compound 16, 3-(4-{2-[(2S)-3-(9H-Carbazol-4-yloxy)-2-hydroxy-propylamino]-propyl}-phenylamino)-4-octylamino-cyclobut-3-ene-1,2-dione] |
| – | 0.31 | 225 °C | CCCCCCCCCCNc1c(Nc2ccc(CCCNC[C@H](O)COc3cccc4[nH]c5ccccc5c34)cc2)c(=O)c1=O [Compound 17, 3-(4-{[(2S)-3-(9H-Carbazol-4-yloxy)-2-hydroxy-propylamino]-propyl}-phenylamino)-4-decylamino-cyclobut-3-ene-1,2-dione] |
| 64 | 0.64 | 121 to 124 °C | CCCCCCCCNC1=NS(=O)(=O)N=C1Nc1ccc(CC(C)NC[C@H](O)COc2cccc3[nH]c4ccccc4c23)cc1 (stereo partly drawn) [Compound 21, (2S)-1-(9H-Carbazol-4-yloxy)-3-{1-methyl-2-[4-(4-octylamino-1,1-dioxo-1H-1(lambda(6))-[1,2,5]thiadiazol-3-ylamino)-phenyl]-ethylamino}-propan-2-ol] |
| – | 0.39 | 77 to 82 °C | CCCCCCCCNC1=NS(=O)(=O)N=C1Nc1ccc(CC(C)NC[C@H](O)COc2ccccc2)cc1 (stereo partly drawn) [Compound 22, (2S)-1-{[1-methyl-2-(4-{[4-(octylamino)-1,1-dioxido-1,2,5-thiadiazol-3-yl]amino}phenyl)ethyl]amino}-3-phenoxypropan-2-ol] |
| 1360 | 0.64 | 144 to 155 °C | CCCCCCCCCCNc1c(Nc2ccc(CC(C)NC[C@H](O)COc3ccccc3)cc2)c(=O)c1=O (stereo partly shown) [Compound 23] |
| 81 | 0.41 | 146 to 155 °C | CCCCCCCCNc1c(Nc2ccc(CC(C)NC[C@H](O)COc3ccccc3)cc2)c(=O)c1=O (stereo partly drawn) [Compound 24, 3-{4-[2-((2S)-2-Hydroxy-3-phenoxy-propylamino)-propyl]-phenylamino}-4-octylamino-cyclobut-3-ene-1,2-dione] |
| 9 | 1.27 | 120 °C (dec.) | CCCCCCCCCCNC1=NS(=O)(=O)N=C1Nc1ccc(CC(C)NC[C@H](O)c2ccc(O)c(NS(C)(=O)=O)c2)cc1 (stereo partly drawn) [Compound 27, N-[5-((1R)-2-{2-[4-(4-Decylamino-1,1-dioxo-1H-1(lambda(6))-[1 2,5]thiadiazol-3-ylamino)-phenyl]-1-methyl-ethylamino}-1-hydroxy-ethyl)-2-hydroxy-phenyl]-methanesulfonamide] |
| 1420 | 0.83 | 222.5 to 224.5 °C (dec.) | CC(C)(Cc1ccc(NC2=NS(=O)(=O)N=C2NCC(c2ccccc2)c2ccccc2)cc1)NC[C@H](O)COc1ccc(OCc2ccccc2)cc1 [Compound 28] |
| 116 | 0.93 | 103 to 105 °C | CC(Cc1ccc(NC2=NS(=O)(=O)N=C2NCC2(c3ccccc3)CCCC2)cc1)NC[C@H](O)COc1ccc(OCc2ccccc2)cc1 (stereo partly drawn) [Compound 30, (2S)-1-(4-Benzyloxy-phenoxy)-3-[2-(4-{1 ,-dioxo-4-[(1-phenyl-cyclopentylmethyl)-amino]-1H-1(lambda(6))-[1,2,5]thiadiazol-3-ylamino}-phenyl)-1-methyl-ethylamino]-propan-2-ol] |
| 125 | 0.51 | 81 to 86 °C | CCCCCCCCNC1=NS(=O)(=O)N=C1Nc1ccc(CC(C)NC[C@H](O)COc2ccc3c(c2)OCO3)cc1 (stereo partly drawn) [Compound 35, (2S)-1-(1,3-Benzodioxol-5-yloxy)-3-{1-methyl-2-[4-(4-octylamino-1,1-dioxo-1H-1.lambda(6).-[1,2,5]thiadiazol-3-ylamino)-phenyl]-ethylamino}-propan-2-ol] |
| 5 | 0.91 | 95 to 100 °C | COc1ccc(CCNC2=NS(=O)(=O)N=C2Nc2ccc(CC(C)NC[C@H](O)COc3ccc(O)cc3)cc2)cc1 (stereo partly drawn) [Compound 36, (S)-4-{2-hydroxy-3-[2-(4-{4-[2-(4methoxy-phenyl)-ethylamino]-1 1-dioxo-1H-1.lambda(6).-[1,2,5]thiadiazol-3-ylamino}-phenyl)-1-methyl-ethylamino]-propoxy}-phenol] |
| 6 | 0.87 | 126 to 131 °C | CC(Cc1ccc(NC2=NS(=O)(=O)N=C2NCCc2ccc(F)cc2)cc1)NC[C@H](O)COc1ccc(O)cc1 (stereo partly shown) [Compound 37] |
